Results from patent US20210130291A1, “METHODS FOR TREATING DIABETES USING VDAC1 INHIBITORS” (THE NATIONAL INSTITUTE FOR BIOTECHNOLOGY IN THE NEGEV LTD., priority 2016, published 2021).
Entries after “also recorded” stand apart in the source; their conditions may differ. Blank lines part the entries; values can stand above or below the compound they belong to.

Assays:
[1] = biological target: T1, plasma membrane targeted VDAC1 (plVDAC1) (Mus musculus, UniProt Q60932); assay: ATP release and ATP content of INS-1 cells transfected with plasma membrane targeted VDAC1; type: cell-based; settings: for ATP release: racemate and enantiomers (FIG. 9a)
T1 construct: expressed in transfected cells; host or cells: INS-1 832/13 cells (rat insulinoma), transient transfection; plasmid a gift from Dr. R. Buettner
T1 sequence (Q60932 whole entry): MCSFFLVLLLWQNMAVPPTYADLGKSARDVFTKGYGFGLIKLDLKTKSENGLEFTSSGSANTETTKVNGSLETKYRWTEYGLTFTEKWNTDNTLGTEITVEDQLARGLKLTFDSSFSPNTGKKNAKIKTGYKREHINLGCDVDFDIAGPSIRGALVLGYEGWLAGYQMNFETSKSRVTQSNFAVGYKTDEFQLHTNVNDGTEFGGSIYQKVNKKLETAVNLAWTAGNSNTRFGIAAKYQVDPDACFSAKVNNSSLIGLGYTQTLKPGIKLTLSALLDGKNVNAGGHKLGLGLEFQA
Method: (§1) ATP release from isolated mouse or human islets or from INS-1 cells after transfection with mitochondrial targeted VDAC1 (mtVDAC1) or plasma membrane targeted VDAC1 (plVDAC1) plasmids was determined using a luminometric assay kit according to manufacturer's recommendation (Biovision). After incubation of islets (50/vial) or INS-1 cells for 60 min, an aliquot of the media was removed for subsequent measurements of released ATP. Then the islets or INS-1 cells were washed 3 times and the lysates were used for measurements of ATP and protein contents followed the protocol provided by the vendor.
INS-1 cells were transiently transfected with a plasmid encoding plasma membrane targeted VDAC1 (pVDAC1) as described in the Material and Method section herein above and in Example 3 (see also Buettner et al 2000. PNAS 97:3201-3206). After transfection (24-32 h and 2-4 h recovery in normal culture medium, RPMI 1640 with complete supplement) the INS-1 cells were washed followed by preincubation in SAB-buffer (See Material and Method above) containing 2.8 mM glucose. The final 1 h incubation was performed in SAB-buffer containing 1 mM glucose and the VDAC1 inhibitory compounds to be tested. At the end, the cells were lysed using lysis buffer, sonicated and the lysate as well as the incubation medium were analyzed for ATP content using a commercially available kit (Biovision, K354-100). Cellular protein content was analyzed by Pierce™ BCA protein assay kit (Thermo Scientific, USA).

[2] = system: VDAC1 expression in INS-1 cells; assay: VDAC1 expression in INS-1 cells cultured at 5 or 20 mM glucose; type: cell-based, rat
Method: INS-1 832/13 cells (kindly donated by Dr. C. B. Newgaard, Duke University, USA) were cultured in RPMI-1640 containing 11.1 mM D-glucose and supplemented with 10% fetal bovine serum, 100 U/ml penicillin (Gibco), 100 µg/ml streptomycin (Gibco), 10 mM HEPES, 2 mM glutamine, 1 mM sodium pyruvate, and 50 µM β-mercaptoethanol (Sigma), at 37° C. in a humidified atmosphere containing 95% air and 5% CO2. For VDAC1 over-expression by VDAC1 plasmid (1 μg/ml) and VDAC2 down-regulation by and siRNA, INS1 832/13 cells were cultured to 60% confluence. To study the long-term effects (24-72 h) of high glucose (20 mM) (glucotoxicity) compared to basal glucose (5 mM), INS-1 832/13 cells were cultured with RPMI 1640 complete media (Ahmed, M., et al., 2010. Islets 2, 283-292) in the presence or absence of indicated agents and thereafter VDAC1 expression, cell viability and function was measured.
Total RNA from handpicked mouse islets, human donor islets (Diabetic and non-diabetic) or INS1 832/13 cells were extracted using RNAeasy (Qiagen, Hilden, Germany). RNA ([…]) was used for cDNA synthesis with SuperScript (Invitrogen, Carlsbad, Calif., USA). Concentration and purity of total RNA was measured with a NanoDrop ND-1000 spectrophotometer (A260/A280>1.9 and A260/A230>1.4) (NanoDrop Technologies, Wilmington, Del.) and RNA Quality Indicator (RQI) higher than 8.0 (Experion Automated Electrophoresis, Bio-Rad, USA) was considered to be high-quality total RNA preparations. A 10 μl of reaction mixture with 20 ng cDNA, 5 μl TaqMan mastermix (Applied Biosystems, Foster City, Calif., USA), and 100 nM TagMan gene expression assay were run in a 7900HT Fast Real-Time System (Applied Biosystems). The qPCR was carried out as follows: 50° C. for 2 minutes, 95° C. for 10 minutes, 40 cycles of 95° C. for 15 seconds, and 60° C. for 1 minute. The amount of mRNA was calculated relative to the amount of housekeeping genes (GAPDH, PPIA or HPRT) mRNA in the same sample by the formula X0/R0=2CtR-CtX, where X0 is the original amount of mRNA for the gene of interest, R0 is the original amount of HPRT mRNA, CtR the Ct value for HPRT, and CtX the Ct value for the gene of interest. Primer sequences are provided upon request.

islets of C57/BL mice = assay: ATP content and GSIS in islets of control C57/BL mice; type: cell-based, mouse; settings: VDAC1 antibody 10 nM
Method: 5 weeks old db/db mice and control (C57/bl) (Janvier Laboratory, France), weighing 18-25 g, were used throughout the experiments. They were given a standard pellet diet (B&K) and tap water ad libitum. The experimental procedures were approved by the Ethics Committee for Animal Research at Lund University. Isolation of pancreatic islets was performed by retrograde injection of a collagenase solution via the bile-pancreatic duct and islets were then collected under a stereomicroscope at room temperature.
(§2) Human pancreatic islets were collected under a stereomicroscope at room temperature and cultured at 5.5 or 20 mM glucose in the absence or presence of test agents for 72 h. Thereafter the islets were washed and preincubated for 30 min at 37° C. in Krebs Ringer bicarbonate buffer, pH 7.4, supplemented with N-2 hydroxyethylpiperazine-N′-2-ethanesulfonic acid (10 mM), 0.1% bovine serum albumin, and 1 mM glucose. Each incubation vial contained 12 islets in 1.0 ml KRB buffer solution and treated with 95% O2 and 5% CO2 to obtain constant pH and oxygenation. After preincubation, the buffer was changed to a medium containing either 1 mM or 16.7 mM glucose. The islets were then incubated for 1 h at 37° C. in a metabolic shaker (30 cycles per min). Immediately after incubation an aliquot of the medium was removed for analysis of insulin and the islets were incubated in acid-ethanol for insulin content determination by radioimmunoassay.
as §1

islets from T2D donors = assay: ATP content and GSIS in islets from T2D donors, acute addition of VDAC1 inhibitors; type: cell-based, human
From the text: Human pancreatic islets were obtained through collaboration between Human Tissue Laboratory within Lund University Diabetes Centre (LUDC) and the Nordic Network for Clinical Islet Transplantation (Prof. Olle Korsgren, Uppsala University, Sweden). Donors were grouped according to HbA1c i.e. less than 6% (ND), between 6% and 6.5% (IGT), higher than 6.5% or history of diabetes (T2D). The human islets (70-90% purity) had been cultured in CMRL 1066 (ICN Biomedicals, Costa Mesa, Calif.) supplemented with 10 mM HEPES, 2 mM L-glutamine, […] gentamicin, […] fungizone (Gibco, BRL, Gaithersburg, Md.), 20 μg/ml ciprofloxacin (Bayer Healthcare, Leverkusen, Germany) and 10 mM nicotinamide at 37° C. (5% CO2) for 1 to 5 days prior to the arrival in the laboratory. The islets were then hand-picked under stereomicroscope prior to use. All procedures using human islets were approved by the ethical committees at Uppsala and Lund Universities, Sweden.
as §2, §1

[3] = plVDAC1-transfected INS-1 cells, 1 h at 1 mM glucose

effect of AMPK inhibitor on metformin-inhibited ATP release ([1]; plVDAC1 transfected INS-1 cells, MRT199665 5 μM with metformin (FIG. 4i)): neither attenuated
Structure (SMILES): CC1(C)C(=O)N([C@H]2CCc3c(O)cccc32)c2nc(Nc3cccc(CN4CCCC4)c3)ncc21 [MRT199665, reference compound]

ATP release [1, 3]: efficiently inhibit ATP release
cellular ATP content ([1]; plVDAC1-transfected INS-1 cells, 1 h at 1 mM glucose, racemate and enantiomers (FIG. 9b)): increase cellular ATP content
Structure (SMILES): O=C(CC(CO)N1CCN(c2ccc(OC(F)(F)F)cc2)CC1)Nc1ccc(Cl)cc1 (centres unmarked) [VBIT-4-1]

ATP release [1, 3]: efficiently inhibit ATP release
Structure (SMILES): O=C(CC(CO)N1CCN(c2ccc(OC(F)(F)F)cc2)CC1)Nc1ccc(Cl)cc1 (centres unmarked) [VBIT-4-2]

The remaining lines, values behind:

Structure (SMILES): O=CC[C@@H](O)[C@H](O)[C@H](O)CO [2-deoxyglucose, reference compound]
VDAC1 expression ([2]; INS-1 cells, 2-deoxyglucose, data not shown): increased VDAC1 expression

Structure (SMILES): O=C1CC(N2CCC(Nc3ccc(OC(F)(F)F)cc3)CC2)C(=O)N1c1ccc(Cl)cc1 (centres unmarked) [AKOS, 1-(4-Chloro-phenyl)-3-[4-(4-trifluoromethoxy-phenylamino)-piperidin-1-yl]-pyrrolidine-2,5-dione]
glucose evoked VDAC1 upregulation (total VDAC1 expression) ([2]; INS-1 cells cultured 72 h at 20 mM glucose, VDAC1ab 10 nM, metformin, AKOS, VBIT-4 20 μM each (FIG. 4l, 4m)): abrogated the glucose evoked VDAC1 upregulation
GSIS (islets of C57/BL mice; others 20 μM (FIG. 7e)): do not affect
ATP content (islets of C57/BL mice; others 20 μM (FIG. 7d)): do not affect
ATP release (loss of cellular ATP) ([1]; plVDAC1-transfected INS-1 cells, 1 h at 1 mM glucose, VDAC1-ab 10 nM, metformin, AKOS, VBIT-4 20 μM each (FIG. 4c)): prevented; also recorded: rapidly inhibited
GSIS (islets from T2D donors; T2D islets, acute addition 1 h (FIG. 6f)): increased in parallel with the improved ATP generation
islet ATP content (islets from T2D donors; islets from 5 T2D donors and one IGT donor, 1 h, at 1 and 16.7 mM glucose (FIG. 6e)): increased islet ATP content
